# From ChEMBL document CHEMBL1201862, “PubChem BioAssay data set” (2004)
# Calls of active or inactive are those of the source.
# Tests used:
# [1] = NIH3T3 cell viability loss – ATP luminescence, mouse fibroblasts, counter-screen, dose response (AID 2010); assay type: functional, cell-based;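 note: cells exposed to compound for about 90 hours before reading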
# [2] = molecular target: Eukaryotic translation initiation factor 4E (Mus musculus, UniProt P63073); assay: blockers of eIF4G binding by eIF4E – biochemical, TR-FRET, dose response (AID 855); assay type: functional;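 note: potency for disrupting eIF4E binding to eIF4GI seen as loss of FRET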
# [3] = Trypanosoma cruzi growth suppression in host cells – NIH3T3 host cells, beta-gal luminescence, confirmation (AID 2044); assay type: functional, cell-based;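 note: intracellular parasites grown in NIH/3T3 mouse fibroblasts as host cells; luminescent beta-galactosidase reporter signal from transgenic T. cruzi replicating inside host cells; inhibitors lower the luminescence signal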
# Nonstructural protein 1 = Nonstructural protein 1 (Influenza A virus, UniProt Q194T2); assay type: functional, Influenza A virus (A/California/07/2009(H1N1))
# [4] = molecular target: T1, Rac GTPase-activating protein 1 (Homo sapiens, UniProt Q9H0H5); assay: blockers of MgcRacGAP-driven Rac1 GTP hydrolysis – biochemical, ADP Hunter fluorescence, primary and confirmatory, confirmation (AID 624330); assay type: functional
# T1 sequence (Q9H0H5 whole entry): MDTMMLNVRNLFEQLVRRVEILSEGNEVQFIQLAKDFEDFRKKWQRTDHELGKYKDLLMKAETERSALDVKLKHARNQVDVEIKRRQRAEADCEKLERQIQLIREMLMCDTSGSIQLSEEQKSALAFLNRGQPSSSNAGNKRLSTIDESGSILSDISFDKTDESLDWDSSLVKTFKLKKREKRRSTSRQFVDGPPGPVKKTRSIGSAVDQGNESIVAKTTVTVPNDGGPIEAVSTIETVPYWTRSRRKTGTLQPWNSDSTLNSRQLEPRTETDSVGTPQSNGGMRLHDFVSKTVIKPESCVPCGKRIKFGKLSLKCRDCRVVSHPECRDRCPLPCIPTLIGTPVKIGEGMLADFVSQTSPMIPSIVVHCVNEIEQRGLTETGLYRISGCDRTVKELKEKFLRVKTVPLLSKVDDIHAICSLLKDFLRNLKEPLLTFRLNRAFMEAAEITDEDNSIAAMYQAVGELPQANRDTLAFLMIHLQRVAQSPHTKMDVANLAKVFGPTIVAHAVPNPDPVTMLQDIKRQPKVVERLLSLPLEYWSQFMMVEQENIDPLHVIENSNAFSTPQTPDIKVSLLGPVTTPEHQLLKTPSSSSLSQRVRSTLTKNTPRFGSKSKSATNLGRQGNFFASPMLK
# [5] = molecular target: T2, Polyadenylate-binding protein 1 (Homo sapiens, UniProt P11940); assay: MLLE domain peptide-binding blockers, IC50 – biochemical, fluorescence polarization, FITC-PAM2 peptide, dose response (AID 602259); assay type: functional; settings: read-out: IC50_Mean
# [6] = molecular target: T2, Polyadenylate-binding protein 1; assay: MLLE binding blockers, Cy5 peptide tracer – biochemical, fluorescence polarization, Cy5-PAM2 peptide, secondary, miRNA deadenylation inhibitor project, dose response (AID 602260); assay type: functional; settings: read-out: IC50_Mean
# [7] = molecular target: T3, Microphthalmia-associated transcription factor (Homo sapiens, UniProt O75030); assay: reducers of TRPM1 reporter luminescence, concentration series – cell-based, SK-MEL-5, cherry-picked, set 3, MITF inhibitor project, dose response (AID 493073); assay type: functional;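 note: SK-MEL-5 melanoma cells with luciferase driven by the MITF target TRPM1 promoter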
# T3 sequence (O75030 whole entry): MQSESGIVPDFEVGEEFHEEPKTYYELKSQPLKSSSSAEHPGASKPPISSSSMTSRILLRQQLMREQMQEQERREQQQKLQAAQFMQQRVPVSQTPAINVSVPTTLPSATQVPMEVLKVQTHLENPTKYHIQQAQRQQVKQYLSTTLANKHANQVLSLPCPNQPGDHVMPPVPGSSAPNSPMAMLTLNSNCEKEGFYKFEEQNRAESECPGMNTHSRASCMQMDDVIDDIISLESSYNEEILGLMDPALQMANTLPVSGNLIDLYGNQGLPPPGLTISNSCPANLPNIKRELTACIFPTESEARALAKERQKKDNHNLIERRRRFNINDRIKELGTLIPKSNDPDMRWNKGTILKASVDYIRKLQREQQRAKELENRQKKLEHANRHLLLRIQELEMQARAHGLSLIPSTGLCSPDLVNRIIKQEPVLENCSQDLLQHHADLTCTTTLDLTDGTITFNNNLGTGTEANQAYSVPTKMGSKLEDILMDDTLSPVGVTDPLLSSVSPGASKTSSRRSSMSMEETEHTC
# [8] = molecular target: T4, Zinc finger protein mex-5 (Caenorhabditis elegans, UniProt Q9XUB2); assay: potency of MEX-5 RNA-binding blockers – biochemical, C. elegans, fluorescence polarization, dose response (AID 1960)
# T4 sequence (Q9XUB2 whole entry): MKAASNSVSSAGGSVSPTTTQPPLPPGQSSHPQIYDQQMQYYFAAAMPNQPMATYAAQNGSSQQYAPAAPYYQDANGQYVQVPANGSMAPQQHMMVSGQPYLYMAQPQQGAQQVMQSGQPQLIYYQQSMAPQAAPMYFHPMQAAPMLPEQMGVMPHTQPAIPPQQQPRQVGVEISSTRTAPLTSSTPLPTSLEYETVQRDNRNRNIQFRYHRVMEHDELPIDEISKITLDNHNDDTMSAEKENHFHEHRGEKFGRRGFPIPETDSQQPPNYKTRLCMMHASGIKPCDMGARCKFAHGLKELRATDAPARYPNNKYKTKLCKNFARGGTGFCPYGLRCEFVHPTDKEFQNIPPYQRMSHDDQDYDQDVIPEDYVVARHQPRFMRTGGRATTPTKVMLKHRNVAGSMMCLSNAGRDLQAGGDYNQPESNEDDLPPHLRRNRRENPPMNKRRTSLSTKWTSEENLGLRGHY
# [9] = molecular target: T5, RNA-binding protein pos-1 (Caenorhabditis elegans, UniProt G5EF15); assay: disruptors of C. elegans POS-1 RNA interaction – biochemical, fluorescence polarization, dose response (AID 1964);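 note: purified POS-1 fused to maltose binding protein made in E. coli; potency of compounds blocking POS-1 binding to fluorescent RNA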
# T5 sequence (G5EF15 whole entry): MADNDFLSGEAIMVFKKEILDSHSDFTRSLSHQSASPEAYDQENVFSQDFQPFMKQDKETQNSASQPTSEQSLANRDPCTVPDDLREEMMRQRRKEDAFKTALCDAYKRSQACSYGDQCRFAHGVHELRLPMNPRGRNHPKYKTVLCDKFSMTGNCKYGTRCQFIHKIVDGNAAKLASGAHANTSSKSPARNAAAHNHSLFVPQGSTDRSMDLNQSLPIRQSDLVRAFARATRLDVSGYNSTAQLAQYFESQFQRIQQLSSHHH
# Cytochrome P450 2C9 = Cytochrome P450 2C9 (Homo sapiens, UniProt P11712)
# Cytochrome P450 2D6 = Cytochrome P450 2D6 (Homo sapiens, UniProt P10635);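 note: CYP2D6 member of a cytochrome P450 panel assay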
# [10] = off-target signal loss in HeLa-CEM21 co-culture – HeLa F-luc CTL cells, cherry-picked, counter-screen for HIV-1 Env fusion inhibitor project, dose response (AID 652040); assay type: functional, cell-based;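 note: potency for signal decrease marking cytotoxic or nonspecific inhibition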
# [11] = HIV-1 AD8 envelope cell-cell fusion blockers – cherry-pick, dose response (AID 652062); assay type: functional, cell-based;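 note: luciferase signal from cell-cell fusion driven by HIV-1 clade B AD8 Env; potency is for inhibitors of fusion seen as a drop in luminescence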
# [12] = blockers of HIV-1 envelope-mediated cell-cell fusion – cherry-pick, dose response (AID 652057); assay type: functional, cell-based
# [13] = blockers of HIV-1 ZM109 envelope-driven cell-cell fusion – HeLa effector, CEM target cells, luciferase, cherry-pick, dose response (AID 652058); assay type: functional, cell-based;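 note: luciferase signal from HIV-1 Env mediated cell-cell fusion of effector and target cells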
# [14] = NIH-3T3 fibroblast cytotoxicity, dose response, cytotoxicity control, cell-based, fluorescence, Alamar Blue, secondary assay (AID 2327); assay type: functional;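 note: NIH-3T3 mouse fibroblasts cultured with fluconazole at 8 µg/mL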
# [15] = fluconazole-exposed Candida albicans growth modulators – fluorescence, retest, confirmation (AID 2467); assay type: functional, cell-based
# INS1 = assay: INS-1E survival protection against cytokine death – cell-based, luminescence, retest, dose response (AID 449756); assay type: functional; settings: Rattus norvegicus;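 note: cell death triggered by IL-1 beta plus TNF-alpha plus IFN-gamma mixture; protective hits raise ATP signal compared with cytokine alone wells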
# [16] = Luminescence Cell-Based Dose Retest to Confirm Inhibitors of Cancer Stem Cells. [Related pubchem assays (depositor defined):AID2717, AID2721]; assay type: functional; settings: Homo sapiens
# Protein skinhead-1 = molecular target: T6, Protein skinhead-1 (Caenorhabditis elegans, UniProt P34707); assay type: functional
# T6 sequence (P34707 whole entry): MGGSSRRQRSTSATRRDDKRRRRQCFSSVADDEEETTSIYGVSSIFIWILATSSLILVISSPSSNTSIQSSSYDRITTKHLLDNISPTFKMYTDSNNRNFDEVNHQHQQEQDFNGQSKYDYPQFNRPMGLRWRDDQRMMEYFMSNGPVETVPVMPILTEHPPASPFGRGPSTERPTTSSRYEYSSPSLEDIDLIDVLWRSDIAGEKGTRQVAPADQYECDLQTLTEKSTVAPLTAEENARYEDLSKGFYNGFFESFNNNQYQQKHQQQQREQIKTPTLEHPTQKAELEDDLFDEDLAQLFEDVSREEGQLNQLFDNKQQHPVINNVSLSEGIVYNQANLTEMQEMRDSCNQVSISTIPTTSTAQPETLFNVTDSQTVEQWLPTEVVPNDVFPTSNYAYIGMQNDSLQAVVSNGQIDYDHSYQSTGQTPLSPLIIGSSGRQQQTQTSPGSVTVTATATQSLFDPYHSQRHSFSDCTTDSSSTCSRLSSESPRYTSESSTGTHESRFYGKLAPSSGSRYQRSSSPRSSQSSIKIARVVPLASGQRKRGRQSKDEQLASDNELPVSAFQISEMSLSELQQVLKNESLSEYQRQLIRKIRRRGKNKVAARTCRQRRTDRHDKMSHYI
# [17] = molecular target: Induced myeloid leukemia cell differentiation protein Mcl-1 (Homo sapiens, UniProt Q07820); assay type: functional
# Sequence of Induced myeloid leukemia cell differentiation protein Mcl-1 (Q07820 whole entry): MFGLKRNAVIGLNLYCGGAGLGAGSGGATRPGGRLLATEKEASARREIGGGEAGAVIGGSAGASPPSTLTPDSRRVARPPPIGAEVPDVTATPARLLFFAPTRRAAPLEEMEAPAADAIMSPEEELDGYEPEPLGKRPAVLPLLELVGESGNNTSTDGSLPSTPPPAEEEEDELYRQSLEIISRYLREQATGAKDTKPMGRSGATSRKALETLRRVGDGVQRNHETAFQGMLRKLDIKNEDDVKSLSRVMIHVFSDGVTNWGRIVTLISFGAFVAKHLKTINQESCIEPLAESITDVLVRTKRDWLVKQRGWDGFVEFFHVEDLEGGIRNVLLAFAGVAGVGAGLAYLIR
# T2 sequence (P11940 whole entry, the tested form may be a part): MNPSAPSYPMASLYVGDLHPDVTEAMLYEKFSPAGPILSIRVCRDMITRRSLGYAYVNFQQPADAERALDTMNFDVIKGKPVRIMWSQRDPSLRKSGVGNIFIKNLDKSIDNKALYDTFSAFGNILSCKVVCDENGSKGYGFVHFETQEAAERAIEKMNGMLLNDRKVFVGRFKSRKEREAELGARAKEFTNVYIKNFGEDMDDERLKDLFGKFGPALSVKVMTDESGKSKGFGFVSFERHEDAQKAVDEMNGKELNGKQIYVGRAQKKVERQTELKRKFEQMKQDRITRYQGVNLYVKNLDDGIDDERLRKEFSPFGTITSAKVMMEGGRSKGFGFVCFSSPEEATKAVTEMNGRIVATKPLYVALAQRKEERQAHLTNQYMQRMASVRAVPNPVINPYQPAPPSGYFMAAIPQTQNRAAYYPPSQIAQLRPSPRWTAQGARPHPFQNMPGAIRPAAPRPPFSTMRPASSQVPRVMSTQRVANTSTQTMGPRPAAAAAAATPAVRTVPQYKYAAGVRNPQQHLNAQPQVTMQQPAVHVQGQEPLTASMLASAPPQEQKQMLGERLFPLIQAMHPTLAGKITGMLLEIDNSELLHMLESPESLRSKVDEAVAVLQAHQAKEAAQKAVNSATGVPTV
# Sequence of Cytochrome P450 2C9 (P11712 whole entry): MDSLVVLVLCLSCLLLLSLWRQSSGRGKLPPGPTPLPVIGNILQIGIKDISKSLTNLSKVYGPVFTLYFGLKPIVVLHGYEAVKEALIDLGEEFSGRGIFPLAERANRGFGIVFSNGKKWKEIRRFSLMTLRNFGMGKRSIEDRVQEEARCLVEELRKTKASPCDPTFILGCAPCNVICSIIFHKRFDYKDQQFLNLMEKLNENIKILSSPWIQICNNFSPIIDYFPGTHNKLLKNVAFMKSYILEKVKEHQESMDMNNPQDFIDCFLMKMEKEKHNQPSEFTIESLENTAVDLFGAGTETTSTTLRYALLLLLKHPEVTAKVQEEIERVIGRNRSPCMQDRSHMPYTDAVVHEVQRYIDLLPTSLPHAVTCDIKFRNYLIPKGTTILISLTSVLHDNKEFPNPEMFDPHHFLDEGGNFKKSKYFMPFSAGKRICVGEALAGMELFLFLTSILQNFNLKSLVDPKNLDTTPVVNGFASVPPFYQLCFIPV
# Sequence of Cytochrome P450 2D6 (P10635 whole entry, the tested form may be a part): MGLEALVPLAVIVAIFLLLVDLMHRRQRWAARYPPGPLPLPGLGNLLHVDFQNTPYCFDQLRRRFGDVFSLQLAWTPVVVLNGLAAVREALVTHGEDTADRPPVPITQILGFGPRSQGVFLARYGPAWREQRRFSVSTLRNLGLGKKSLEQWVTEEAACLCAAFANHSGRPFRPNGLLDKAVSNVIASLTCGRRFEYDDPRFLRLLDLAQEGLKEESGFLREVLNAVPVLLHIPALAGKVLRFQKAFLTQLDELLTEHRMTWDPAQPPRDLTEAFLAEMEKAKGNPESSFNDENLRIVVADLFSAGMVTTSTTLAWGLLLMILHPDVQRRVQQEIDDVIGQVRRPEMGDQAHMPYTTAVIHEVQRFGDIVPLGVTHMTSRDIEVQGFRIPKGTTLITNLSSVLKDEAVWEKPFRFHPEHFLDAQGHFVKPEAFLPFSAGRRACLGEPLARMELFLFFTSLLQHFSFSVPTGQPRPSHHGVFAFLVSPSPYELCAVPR
# Sequence of Nonstructural protein 1 (Q194T2 whole entry): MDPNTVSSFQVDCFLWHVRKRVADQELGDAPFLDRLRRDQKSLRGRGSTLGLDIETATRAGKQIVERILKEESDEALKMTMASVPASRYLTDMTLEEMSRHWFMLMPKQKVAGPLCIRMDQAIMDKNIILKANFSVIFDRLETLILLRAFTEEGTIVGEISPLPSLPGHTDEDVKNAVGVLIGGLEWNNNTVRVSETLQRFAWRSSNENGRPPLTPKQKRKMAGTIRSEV
# Sequence of Eukaryotic translation initiation factor 4E (P63073 whole entry): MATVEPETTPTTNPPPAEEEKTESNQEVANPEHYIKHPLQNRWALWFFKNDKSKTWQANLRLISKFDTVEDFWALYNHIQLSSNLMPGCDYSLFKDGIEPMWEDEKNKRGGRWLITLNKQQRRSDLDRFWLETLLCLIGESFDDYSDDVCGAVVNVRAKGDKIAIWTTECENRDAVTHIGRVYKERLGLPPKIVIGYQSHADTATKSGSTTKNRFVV
smiles,measurement,setting,value
Nc1ccc(N(c2ccccc2)c2ccc(N)cc2)cc1,EC50,[1],> 60 µM (not active)
same,IC50,[2],> 64 µM (inactive)
same,EC50,[3],1.81 µM (active)
same,IC50,Nonstructural protein 1,9.26 µM (active)
same,IC50,[4],8.57 µM (active)
CN=C(S)SCCOc1ccccc1,IC50,[5],> 66 µM (inactive)
same,IC50,[6],> 66 µM (inactive)
O=C(/C=C/c1ccc([N+](=O)[O-])s1)N1CCCC1,EC50,[1],> 60 µM (not active)
same,AC50,[7],9.86 µM (active)
same,EC50,[8],> 300 µM (not active)
same,EC50,[3],1.03 µM (active)
same,EC50,[9],> 300 µM (not active)
CCCCCCN1C=CC(=C2C(=O)c3ccccc3C2=O)C=C1,AC50,[7],3.86 µM (active)
Cc1noc(C)c1-c1nccc(-n2ccnc2)n1,AC50,Cytochrome P450 2C9,inconclusive
same,AC50,Cytochrome P450 2D6,20 µM (inconclusive)
O=C(N/N=C/c1sc(N2CCOCC2)nc1-c1ccccc1)c1cccc(S(=O)(=O)N2CCOCC2)c1,AC50,[10],6.84 µM (active)
same,AC50,[11],3.47 µM (active)
same,AC50,[12],4.02 µM (active)
same,AC50,[13],4.42 µM (active)
same,EC50,[14],> 150 µM (inactive)
same,EC50,[15],> 38 µM (not active)
CN(C)C(=O)CCC(=O)N1CCCC(C(=O)c2ccc3c4c(cccc24)CC3)C1 (stereo not given),AC50,[10],0.753 µM (active)
same,AC50,[11],2.71 µM (active)
same,AC50,[12],0.498 µM (active)
same,AC50,[13],0.53 µM (active)
CC(=O)N1CCN(c2ccc(NC(=S)NC(=O)COc3ccc(C(C)(C)C)cc3)cc2)CC1,IC50,[5],> 66 µM (inactive)
same,IC50,[6],> 66 µM (inactive)
COc1ccc(CCNC(=O)c2nn(C)c3c2CS(=O)(=O)c2ccccc2-3)cc1OC,EC50,[8],> 300 µM (not active)
same,EC50,[9],> 300 µM (not active)
COc1cccc(C2C(C#N)=C(N)OC3=C2C(=O)CCC3)c1OC(=O)c1ccco1 (stereo not given),EC50,[8],> 300 µM (not active)
same,EC50,[9],> 300 µM (not active)
Cc1ccc(C(C)C)c(OCc2n[n+](CC(=O)c3ccc(Cl)cc3)c3n2CCCCC3)c1,EC50,[1],> 60 µM (not active)
same,AC50,INS1,3.41 µM (active)
same,AC50,[7],9.83 µM (active)
same,EC50,[3],0.304 µM (active)
same,AC50,[16],3.31 µM (active)
O=C(N/N=C/c1ccc(F)cc1)c1c(O)nc2ccccc2c1O,AC50,[7],9.64 µM (active)
Cc1cc2cc(CNC(=O)Nc3ccccc3)ccc2n1C,IC50,[5],> 66 µM (inactive)
same,IC50,[6],> 66 µM (inactive)
same,IC50,Protein skinhead-1,> 100 µM (inactive)
Cc1cc([N+](=O)[O-])ccc1-c1ccc(/C=N/NC(=O)c2ccc(Br)o2)o1,EC50,[8],5.51 µM (active)
same,EC50,[9],19.7 µM (active)
same,AC50,[16],2.35 µM (active)
CCN(CC)c1ccc(/N=C/c2c(C)[nH]c3ccccc23)cc1,IC50,[2],> 64 µM (inactive)
same,IC50,Nonstructural protein 1,29.3 µM (active)
same,IC50,[4],43.7 µM (active)
O=C(O)c1ccccc1N/N=C/c1c(Sc2nnnn2-c2ccccc2)nc2ccccn2c1=O,IC50,[17],2.58 µM (active)
same,EC50,[8],116 µM (active)
same,EC50,[9],> 300 µM (not active)
O=C(OCC#CCSc1nnc(-c2cccc3ccccc23)o1)c1ccco1,AC50,Cytochrome P450 2C9,inconclusive
S=c1nc(-c2ccccc2)oc2c1CCCC2,AC50,Cytochrome P450 2C9,inconclusive
CCOC(=S)SCc1cn2cccc(C)c2n1,IC50,[5],> 66 µM (inactive)
same,IC50,[6],> 66 µM (inactive)
Cc1cccc(NC(=O)CCCN2C(=O)c3cccc4cccc(c34)C2=O)c1,AC50,Cytochrome P450 2C9,inconclusive
same,AC50,Cytochrome P450 2D6,25.1 µM (inconclusive)
CC1CCCCN1C(=O)Cn1nnc(-c2cccnc2)n1 (stereo not given),IC50,[5],17 µM (active)
same,IC50,[6],> 66 µM (inactive)
CN1C(=O)C(=Cc2ccc(SC3CCCCC3)o2)C(=O)N(C)C1=O,EC50,[8],> 300 µM (not active)
same,EC50,[9],> 300 µM (not active)
COc1ccc2c(c1)OC[C@H]1[C@H]2N2C(=O)CN(Cc3ccc(C)cc3)C(=O)[C@@]2(C)[C@H]1c1ccccc1,AC50,[10],26.9 µM (active)
same,AC50,[11],5.83 µM (active)
same,AC50,[12],7.77 µM (active)
same,AC50,[13],15.5 µM (active)
COc1ccc(C(=S)N2CCC(C(N)=O)CC2)cc1Br,IC50,[5],> 66 µM (inactive)
same,IC50,[6],> 66 µM (inactive)
